Reference: PMC5986654, “Combined HAT/EZH2 modulation leads to cancer-selective cell death” (Oncotarget, 2018)

Biological target: T1, CYP3A4 (Homo sapiens, UniProt P08684)
T1 construct: from tissue; host or cells: human liver microsomes
Experiment: Cytochrome P450 inhibition, CYP3A4
Format: in vitro ADME
Conditions: probe midazolam (2.5 µM), human liver microsomes, observed only at 25 μM
Protocol: This provided a dose of 2 mg free base material/kg when Cytochrome p450 inhibition (5 isoform iC50 administered iv in a 5 mL/kg dosing volume. determination) mouse terminal ip pK study ADME-Tox Cytochrome P450 inhibition of Compound MC2884 was given ip at a dose of 2 mg/kg MC2884 using human liver microsomes as an estimation to a group of 24 normally fed male CD1 mice in a 10 mL/ of in vitro metabolism. kg injection volume. Terminal blood samples (> 230 μL) MC2884 (0.1 μM–25 μM) was incubated with were taken under CO2 from groups of 3 mice at each of 8 human liver microsomes and NADPH in the presence time-points post dose (0.083, 0.25, 0.5, 1, 2, 4, 8 and 24 h) of a cytochrome P450 isoform-specific probe substrate. and placed into heparinized tubes. […]
All samples were stored at −20° C measuring the formation of a fluorescent metabolite. […]
Cyp2C19 inhibition (0.1 mg/mL) and NADPH (1 mM) in the presence of the probe substrate midazolam (2.5 μM) for 5 min at Six test compound samples at concentrations 37° C. […] For the CYP1A incubations, the reactions microsomes (0.5 mg/mL) and NADPH (1 mM) in the were terminated by methanol, and the formation of the presence of the probe substrate mephenytoin (25 μM) metabolite, resorufin, was monitored by fluorescence for 60 min at 37° C. […]

T1 sequence (P08684 whole entry): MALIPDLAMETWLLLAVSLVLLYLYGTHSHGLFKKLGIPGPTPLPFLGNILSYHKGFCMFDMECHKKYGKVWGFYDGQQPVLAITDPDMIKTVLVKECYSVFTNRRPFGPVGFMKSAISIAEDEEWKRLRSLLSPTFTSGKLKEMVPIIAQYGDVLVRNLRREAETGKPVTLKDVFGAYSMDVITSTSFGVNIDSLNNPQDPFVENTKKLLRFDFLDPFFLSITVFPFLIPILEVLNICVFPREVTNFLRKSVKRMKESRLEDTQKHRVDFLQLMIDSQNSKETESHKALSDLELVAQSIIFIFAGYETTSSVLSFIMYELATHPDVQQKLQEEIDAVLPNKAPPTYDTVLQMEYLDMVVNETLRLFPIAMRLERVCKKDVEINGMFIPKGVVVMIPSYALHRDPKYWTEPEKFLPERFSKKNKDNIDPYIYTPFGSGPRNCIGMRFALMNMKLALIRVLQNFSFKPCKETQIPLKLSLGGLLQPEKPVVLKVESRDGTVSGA

## O=C1/C(=C/c2cccc(Br)c2)CN(Cc2ccccc2)C/C1=C\c1cccc(Br)c1 [MC2884]
  inhibition at 5 min, 25 µM: 45%
